Reference: patent US20070185211A1, “Crystal forms of cinacalcet HCI and processes for their preparation” (priority 2005, published 2007)

Assay: Crystal form after drying/heating at 50° C. (solid state stability of the polymorph)
Type: physicochemical
Procedure: X-Ray powder diffraction data were obtained using a SCINTAG powder X-Ray diffractometer model X'TRA equipped with a solid state detector and a variable gonimeter. Copper radiation of 1.5418 Å was used. A round standard aluminum sample holder with round zero background, and cavity of 25(diameter)*0.5(dept) mm. Scanning parameters range of: 2-40 deg. 2θ and continuous scan rate of 3 deg./min.
0.62 gr of Cinacalcet HCl was dissolved in Chloroform (6 ml) at room temperature. […] The slurry was stirred at room temperature for 4 minutes. […]

- crystalline structure after drying (dried at 50° C. for 24 hours): maintained as form III
- crystal form obtained after heating (heated at 50° C. under vacuum for 22 hours): form I was obtained
SMILES: C[C@@H](NCCCc1cccc(C(F)(F)F)c1)c1cccc2ccccc12.Cl [Cinacalcet HCl crystal form III, (R)-α-methyl-N-[3-[3-(trifluoromethyl)phenyl]propyl]-1-naphthalenemethane amine]
